Test results from publication PMC10711598, “Erythromycin, retapamulin, pyridoxine, folic acid, and ivermectin inhibit cytopathic effect, papain-like protease, and M^PRO enzymes of SARS-CoV-2” (Frontiers in Cellular and Infection Microbiology, 2023).

Experiments:
[1] = target: SARS-CoV-2 main protease (MPRO or 3CL) (Severe acute respiratory syndrome coronavirus 2, UniProt P0DTD1); test: SensoLyte 520 SARS-CoV-2 MPRO activity assay; assay type: biochemical; conditions: for Maximal inhibition of MPRO (%): maximal observed within tested dose range (2.5-10 µM; pyridoxine 5-20 µM); for Dose at maximal observed inhibition of MPRO: within tested dose range
SARS-CoV-2 [2] = test: Inhibition of SARS-CoV-2-induced CPE in Vero cells (neutral red assay); assay type: cell-based; conditions: for Maximal inhibition of CPE (%): MOI 0.1, 48 h, maximal observed within tested dose range (5-10 µM; pyridoxine 10-20 µM); for IC50: Severe acute respiratory syndrome coronavirus 2, three-parameter model, responses constrained to 0-100%; for Dose at maximal observed inhibition of CPE: within tested dose range
[3] = target: SARS-CoV-2 papain-like protease (Severe acute respiratory syndrome coronavirus 2, UniProt P0DTD1); test: SensoLyte 520 SARS-CoV-2 papain-like protease activity assay; assay type: biochemical; conditions: for Maximal inhibition of PP (%): maximal observed within tested dose range (2.5-10 µM; pyridoxine 5-20 µM); for Dose at maximal observed inhibition of PP: within tested dose range
Vero cells = test: Toxicity of the drugs alone to Vero cells (cell toxicity study); conditions: all tested doses
SARS-CoV-2 [4] = tested on: SARS-CoV-2; design: method as in Caly et al., 2020; conditions: inhibition of viral replication; ref Caly et al., 2020; cited from earlier work

| Compound | Maximal inhibition of MPRO (%) [1] [%] | Dose at maximal observed inhibition of MPRO [1] [µM] | Maximal inhibition of CPE (%) (SARS-CoV-2 [2]) | IC50 (SARS-CoV-2 [2]) [µM] | Dose at maximal observed inhibition of CPE (SARS-CoV-2 [2]) [µM] | Maximal inhibition of PP (%) [3] [%] | Dose at maximal observed inhibition of PP [3] [µM] | Toxicity to Vero cells (Vero cells) | Reduction in viral load (SARS-CoV-2 [4]) |
| --- | --- | --- | --- | --- | --- | --- | --- | --- | --- |
| CC[C@H]1OC(=O)[C@H](C)[C@@H](O[C@H]2C[C@@](C)(OC)[C@@H](O)[C@H](C)O2)[C@H](C)[C@@H](O[C@@H]2O[C@H](C)C[C@H](N(C)C)[C@H]2O)[C@](C)(O)C[C@@H](C)C(=O)[C@H](C)[C@@H](O)[C@]1(C)O [Erythromycin] | 30.51 | 2.5 | 76 | 3.27 | 10 | 29.46 | 10.0 | – | – |
| Nc1nc2ncc(CNc3ccc(C(=O)N[C@@H](CCC(=O)O)C(=O)O)cc3)nc2c(=O)[nH]1 [Folic Acid] | 26.8 | 2.5 | 42 | – | 5 | 31.99 | 5 | not found to be toxic | – |
| Cc1ncc(CO)c(CO)c1O [Pyridoxine] | 45.17 | 20.0 | 63 | 9.29 | 20 | 17.46 | 20.0 | – | – |
| C=C[C@]1(C)C[C@@H](OC(=O)CS[C@@H]2C[C@H]3CC[C@@H](C2)N3C)[C@]2(C)[C@H](C)CC[C@]3(CCC(=O)[C@H]32)[C@@H](C)[C@@H]1O [Retapamulin] | 33.37 | 2.5 | 75 | 4.23 | 7.5 | 20.60 | 5 | – | – |
| Ivermectin | 38.07 | 5.0 | 10 | – | – | 34.34 | 10 | – | up to 5,000 fold |
